# Source: patent US20250144126A1, “APPLICATION OF 5'-MONOPHOSPHATE NUCLEOTIDE AND MIXTURE THEREOF IN PREPARATION OF DRUG OR FOOD FOR IMPROVING MITOCHONDRIAL FUNCTION” (priority 2021, published 2025)
# “Also recorded” adds a separate entry of the source.
# Tested on: H2O2-induced senescent mouse embryonic fibroblasts NIH/3T3
# Test: Seahorse xFe96 mitochondria stress detection experiment in H2O2-induced senescent cells
# Type: cell-based
# Details: 24 h incubation after 200 μmol/L H2O2 for 4 h; for mitochondrial basal respiration / mitochondrial oxygen consumption rate (OCR): vs blank and model control; for mitochondrial ATP production capability / mitochondrial maximum respiratory value / mitochondrial respiratory reserve: vs model control, P<0.05
# Protocol: In this example, concentrations of the 5′-adenosine monophosphate and the 5′-disodium uridine obtained in Example 1 were 100 μmol/L and 200 μmol/L respectively, and were recorded as AMP 100 group and UMP 200 group, respectively. […] Model control group was a senescence cell model group intervened by hydrogen peroxide. Blank control group was a group free of mixture of 5′-adenosine monophosphate, 5′-disodium uridine and 5′-monophosphate nucleotide and without hydrogen peroxide intervention.
# The cells used in the example were mouse embryonic fibroblasts NIH/3T3, which were purchased from Cell Bank of Chinese Academy of Sciences.
# The cells were cultured in a DMEM high-sugar medium containing 1% penicillin/streptomycin and 10% fetal bovine serum in an incubator with 5% of CO2 at 37° C. under saturated humidity conditions. The establishment of the senescence cell model was as follows: After the cells grew to the wall of a culture vessel, different concentrations of hydrogen peroxide were used for intervention, where the concentrations of hydrogen peroxide were 50 μmol/L, 100 μmol/L, 200 μmol/L, 400 μmol/L, and 800 μmol/L. The medium containing hydrogen peroxide was removed after incubation for 4 hours, and a normal complete medium (DMEM high-sugar medium containing 1% penicillin/streptomycin and 10% fetal bovine serum) was added for incubation for 24 hours, then the cell activity of the cultured cells was detected by using a CCK-8 cell active kit, the expression of β-galactosidase was detected, and the expressions of the senescent marker p16INK4A and p21Waf1/Cipl were detected by western blot method.
# In this example, the oxygen consumption rate (OCR), basal respiration, maximum respiratory value, ATP production capability and respiratory reserve of mitochondria were determined by using the Seahorse xFe96 (Agilent) mitochondria stress detection experiment. 20000 NIH/3T3 cells were inoculated in each well of a 96-well cell culture plate (Nunc, 165306) except the background wells at four corners. After overnight incubation and the cells grew to the wall of the culture plate, the cells were intervened by 200 μmol/L hydrogen peroxide for 4 hours, then the medium containing hydrogen peroxide was removed, and a normal complete medium containing nucleotides with different concentrations (DMEM high-sugar medium containing 1% of penicillin/streptomycin and 10% of fetal bovine serum, and the concentrations of 5′-adenosine monophosphate and 5′-disodium uridine were respectively 100 μmol/L and 200 μmol/L, and the concentration of the nucleotide mixture was 200 μmol/L) was added for incubation for 24 hours. A probe panel (xFe96 FluxPak, Agilent, 102353-100) was hydrated with a hydration solution (XF Calibrant Solution, Agilent, 100840-000) one day in advance, and then was placed in a non-CO2 incubator for incubation for at least 12 hours at 37° C. The experimental culture solution was prepared on the day of the experiment, 1 mL of 2.5 mM glucose (Glucose, Sigma, G7528), 1 mL of 2 mM glutamine (L-glutamine, Sigma, G8540), and 1 mL of 1 mM sodium pyruvate (Sodium pyruvate, Sigma, S8636) were added to 100 mL of base medium (Seahorse XF Basemedium, Agilent, 102353-100), and the pH of the culture solution was adjusted to 7.4±0.05 with 1N of NaOH. The culture solution of the cell culture plate was replaced with the experimental culture solution, 40 μL/well of the original medium was removed from the cell culture plate, then 160 μL/well of the experimental culture solution was added into the cell culture plate for dilution, and then 160 μL of the mixed culture solution was sucked out; the process was repeated for 2-3 times, finally the volume of the experimental culture solution in each well was 175 μL, and the cell culture plate was stood for 1 hour at 37° C.
SMILES,mitochondrial basal respiration (200 μmol/L),mitochondrial oxygen consumption rate (OCR) (200 μmol/L),mitochondrial ATP production capability (200 μmol/L),mitochondrial maximum respiratory value (200 μmol/L),mitochondrial respiratory reserve (200 μmol/L),mitochondrial basal respiration (100 μmol/L),mitochondrial oxygen consumption rate (OCR) (100 μmol/L),mitochondrial ATP production capability (100 μmol/L),mitochondrial maximum respiratory value (100 μmol/L),mitochondrial respiratory reserve (100 μmol/L)
"O=c1ccn([C@@H]2O[C@H](COP(=O)([O-])[O-])[C@@H](O)[C@H]2O)c(=O)[nH]1.[Na+].[Na+] [UMP, 5′-disodium uridine]",significantly higher than that of the model control group; also recorded: returned to normal level,returned to normal level,significantly increased,significantly increased,significantly increased,,,,,
"Nc1ccn([C@@H]2O[C@H](COP(=O)(O)O)[C@@H](O)[C@H]2O)c(=O)n1 [CMP, 5′-cytidine monophosphate]",increased and significantly lower than that in the nucleotide mixture group; also recorded: little effect,,increased (P<0.05) but significantly lower than that in the nucleotide mixture group; also recorded: little effect,increased (P<0.05) but significantly lower than that in the nucleotide mixture group; also recorded: little effect,,,,,,
"Nc1ncnc2c1ncn2[C@@H]1O[C@H](COP(=O)(O)O)[C@@H](O)[C@H]1O [AMP, 5′-adenosine monophosphate]",,,,,,returned to normal level,returned to normal level,significantly increased,significantly increased,significantly increased
"Nc1nc2c(ncn2[C@@H]2O[C@H](COP(=O)([O-])[O-])[C@@H](O)[C@H]2O)c(=O)[nH]1.[Na+].[Na+] [GMP, 5′-disodium guanylate]",,,increased (P<0.05) but significantly lower than that in the nucleotide mixture group; also recorded: little effect,increased (P<0.05) but significantly lower than that in the nucleotide mixture group; also recorded: little effect,increased (P<0.05) but significantly lower than that in the nucleotide mixture group; also recorded: little effect,,,,,
